This note sets out measurements from patent US20130109698A1, “Small Molecule Inhibitors of Functions of the HIV-1 Matrix Protein” (priority 2010, published 2013).

The test system of data set [1] is luciferase-reporter HIV-1 NL4-3 pseudotyped with HxBc2 envelope produced in 293T cells. Kind of data set: microbe, parasite or virus in culture.
For data set [2], the system named is HIV-1 IIIB. Kind of data set: Infection of Sup-T1 cells by HIV-1 IIIB, p24 ELISA. Conditions: 50 μM, three days.
For data set [3], the system named is HIV-1 Ba-L. As to the kind of experiment: Antiviral activity of additional compounds (Tables 6 and 7). In kind it is cell-based. Conditions: for pIC50 / IC90: Human immunodeficiency virus 1, BAL. On the procedure: (§1) HIV human peripheral blood mononuclear cell (PBMC) assays were performed as described previously (Lanier et al., 2010, Antimicrob Agents Chemother 54:2901-2909 and Ptak et al., 2008, Antimicrob Agents Chemother 52:1302-1317). Briefly, fresh PBMCs, seronegative for HIV and hepatitis B virus (HBV), were isolated from blood samples of the screened donors (Biological Specialty Corporation, Colmar, Pa.) by using lymphocyte separation medium (LSM; density, 1.078±0.002 g/ml; Cellgro; Mediatech, Inc.) by following the manufacturer's instructions. Cells were stimulated by incubation in 4 μg/mL phytohemagglutinin (PHA; Sigma) for 48 to 72 h. Mitogenic stimulation was maintained by the addition of 20 U/mL recombinant human interleukin-2 (rhIL-2; R&D Systems, Inc.) to the culture medium. PHA-stimulated PBMCs from at least two donors were pooled, diluted in fresh medium, and added to 96-well plates at 5×10^4 cells/well. Cells were infected (final multiplicity of infection [MOI] of ≅0.1) in the presence of nine different concentrations of test compounds (triplicate wells/concentration) and incubated for 7 days. To determine the level of virus inhibition, cell-free supernatant samples were collected for analysis of reverse transcriptase activity (Buckheit et al., 1991, AIDS Res Hum Retroviruses 7:295-302). Following removal of supernatant samples, compound cytotoxicity was measured by the addition of 3-(4,5-dimethylthiazol-2-yl)-5-(3-carboxymethoxy-phenyl)-2-(4-sulfophenyl)-2H-tetrazolium (MTS; CellTiter 96 reagent; Promega) by following the manufacturer's instructions.

The test system of data set [4] is HIV-1 NL4-3. The description is as above. In kind it is cell-based. Conditions: for pIC50 / IC90: Human immunodeficiency virus 1, NL43. The protocol: as §1
The nature of data set [5]: Compound cytotoxicity in PBMCs (MTS). It is filed as cell-based, human. To be noted: human, read-out: TC50. On the procedure:
as §1

The test system of data set [6] is HIV-1 92BR030. Kind of data set: Anti-HIV efficacy in human PBMCs, reverse transcriptase activity. In kind it is cell-based. To be noted: HIV-1 92BR030, PBMCs. On the procedure: as §1
For data set [7], the system named is HIV-1 93IN101. The description is as above. In kind it is cell-based. To be noted: HIV-1 93IN101, PBMCs. On the procedure: as §1
The subject of data set [8] is SIV MAC251. As to the kind of experiment: Antiviral efficacy in PBMCs, reverse transcriptase activity. It is filed as cell-based.
Data set [9] addresses T1, HIV-1 MA (Human immunodeficiency virus type 1 group M subtype B, UniProt P03348).
T1 construct: His6 (N, cleaved yes); SUMO (N, cleaved yes); made in house; host or cells: Escherichia coli BL21 (DE3) Codon+-RIL
Kind of data set: Surface plasmon resonance direct binding to immobilized HIV-1 MA. To be noted: CM7 sensor chip, 10 μM (FIG. 14). From the text: An assay was devised to monitor the interactions of small-molecule compounds to HIV-1 MA using SPR. In this assay, HIV-1LA1 MA was immobilized to the flow cells of a CM5 sensor chip to high density (˜1.3 kRU) or a CM7 sensor chip to high density (19 kRU) using standard amine coupling. A reference surface was similarly created by immobilizing the SUMO protein or a nonspecific antibody ARC4033 (antimouse/rat interferon-γ: BioSource). In small-molecule assays, the buffering system used is important due to the low responses obtained in binding assays. […] A stock solution of the MTI compounds was prepared by dissolving in 100% dimethyl sulfoxide (DMSO) to a final concentration of 10 mM.
To prepare the sample for analysis, 30 μL of the stock solution of the compound of the invention was added to sample preparation buffer (PBS, pH 7.2) to a final volume of 1 mL and mixed thoroughly. Preparation of analyte in this manner ensured that the concentration of DMSO was matched with that of running buffer with 3% DMSO. Lower concentrations of each compound were then prepared by two-fold serial dilutions into running buffer (PBS, 3% DMSO, pH 7.2). These compound dilutions were then injected over the control and MA surfaces at a flow rate of 30 μL min^−, for a 4-min association phase, followed by a 5-min dissociation phase.
In one aspect, owing to the relatively fast dissociation rates of these compounds, regeneration of these surfaces was accomplished by extensive washing of the system followed by a 5 min wait phase, a second wash, and a final 15 min wait phase. To secure complete regeneration, a buffer injection (5 min^on/5 min^off) was performed before each subsequent injection of compound.
Response to a small-molecule compound (NBD-556) specific for HIV-1 gp120 was also monitored to ensure specificity.
Data analysis was performed using BIAEvaluation 4.0 software (GE Healthcare). The responses of a buffer injection and responses from the ARC4033-immobilized reference cell were subtracted to account for nonspecific binding. The average maximum response was generated from a minimum of 3 data sets and was used to define the standard deviation for each compound binding to the HIV-1 MA protein.
The MTI compounds are predicted to interact with HIV-1 MA and thereby disrupt its functioning during the HIV-1 replication cycle. However, it is possible that a compound might exert its action via another mechanism not involving MA. Therefore, studies were performed to determine that the MTI compounds are directed against HIV-1 MA. The direct interaction of compounds CMPD-18, CMPD-17, CMPD-7, and CMPD-14 with HIV-1 MA was assayed using surface plasmon resonance interaction analyses. Wild-type HIV-1 MA protein was overproduced in E. coli using the pETHSUL expression system and purified using successive IMAC strategies, followed by an ion exchange chromatographic step as outlined in Materials and Methods. FIG. 6 illustrates the purification profile of HIV-1 MA. The purified MA was then immobilized onto the surface of a high-capacity CM7 sensor chip. Similarly, the monoclonal antibody ARC4033 (antimouse/rat interferon-γ; BioSource, Invitrogen, Carlsbad, Calif.) was immobilized on a CM7 sensor chip and was used to correct for background binding and instrument and buffer artifacts.
Background: In SPR one partner is held on a chip, and binding of the other changes the refractive index at the surface.

[10] abbreviates: Human immunodeficiency virus 1, PBMC.
Setting [11] is: Simian immunodeficiency virus, PBMC.

pIC50: −log10 of the molar value. Like-named read-outs stand apart in the source and are kept apart here.

On to `COc1c(Cl)cc(C(=O)N2CCN(Cc3nc(-c4ccc(C)cc4)no3)CC2)cc1Cl` [CMPD-3, (3,5-dichloro-4-methoxyphenyl)(4-((3-(p-tolyl)-1,2,4-oxadiazol-5-yl)methyl)piperazin-1-yl)methanone], for which the pIC50 (in general, the negative decadic logarithm of the IC50, by convention in mol/L) in data set [1] was under 4.00.

With `COc1ccc(NC(C)=O)cc1NC(=O)Cn1cnc2scc(-c3ccc(C)s3)c2c1=O` [CMPD-10, N-(5-acetamido-2-methoxyphenyl)-2-(5-(5-methylthiophen-2-yl)-4-oxothieno[2,3-d]pyrimidin-3(4H)-yl)acetamide], the pIC50 in [1] was 4.51. Further, the “HIV-1 replication (p24), in words” value in data set [2] is “inhibited HIV-1 replication, albeit to a lesser extent”.

As to `O=C1NC(c2ccccc2)(c2ccccc2)C(=O)N1CN1CCC(c2nc3ccccc3o2)CC1` [CMPD-13, 3-((4-(benzo[d]oxazol-2-yl)piperidin-1-yl)methyl)-5,5-diphenylimidazolidine-2,4-dione], the “HIV-1 replication (p24), in words” value in data set [2] was “no effect”.

As to `O=C(NCc1ccc(CN2CCCC2)cc1)c1ccc(C2SCCCS2)cc1` [CMPD-19, 4-(1,3-dithian-2-yl)-N-(4-(pyrrolidin-1-ylmethyl)benzyl)benzamide], the pIC50 in data set [1] was 4.59. In data set [2], the “HIV-1 replication (p24), in words” value is recorded as “inhibited”.

Consider `CC(=O)NCC(=O)NCc1ccc(C(=O)N2CCCCC2)cc1` [CMPD-45, 2-acetamido-N-(4-(piperidine-1-carbonyl)benzyl)acetamide], for which the pIC50 in data set [3] and in [4] was under 4.00 each time. For the same molecule, the concentration for an effect of 90% (IC90) in [3] and in data set [4] was over 100 µM in each case. The CC50 at 7 days in [5] (Tables 6 and 7 study) was over 100 µM.

For `O=C(CNC(=O)COc1ccc(Cl)cc1)NCc1ccc(C(=O)N2CCCCC2)cc1` [CMPD-46, 2-(4-chlorophenoxy)-N-(2-oxo-2-((4-(piperidine-1-carbonyl)benzyl)amino)ethyl)acetamide], in data set [3], the “Antiviral index (TC50/IC50)” value is given as over 1.38; the pIC50 was 4.14; the IC90 – broadly, the concentration needed for an effect of 90% – was over 100 µM. In [4], the “Antiviral index (TC50/IC50)” value was over 1.28, the pIC50 was 4.11 and the IC90 is over 100 µM. Also, in [5] (Tables 6 and 7 study), the CC50 at 7 days was over 100 µM.

On to `COc1ccc(OCC(=O)NCC(=O)NCc2ccc(C(=O)N3CCCCC3)cc2)cc1` [CMPD-47, 2-(4-methoxyphenoxy)-N-(2-oxo-2-((4-(piperidine-1-carbonyl)benzyl)amino)ethyl)acetamide], for which, in [3], the “Antiviral index (TC50/IC50)” value is 1.44, the pIC50 was 4.29 and it took 96.1 µM to reach the 90% level (IC90). Besides, in data set [4], the “Antiviral index (TC50/IC50)” value worked out at 1.39, the pIC50 was 4.28 and it took 92.7 µM to reach the 90% level (IC90). In addition, the CC50 at 7 days in data set [5] (Tables 6 and 7 study) worked out at 73.1 µM.

`O=C(CNC(=O)COc1ccc(C(F)(F)F)cc1)NCc1ccc(C(=O)N2CCCCC2)cc1` [CMPD-48, N-(2-oxo-2-((4-(piperidine-1-carbonyl)benzyl)amino)ethyl)-2-(4-(trifluoromethyl)phenoxy)acetamide]: in [3], the “Antiviral index (TC50/IC50)” value is on record as over 4.86, the negative-log IC50 (pIC50) is 4.69 and the IC90 is over 100 µM. Also, in data set [4], the “Antiviral index (TC50/IC50)” value is given as over 4.45, the pIC50 was 4.65 and the IC90 is over 100 µM. Moreover, the CC50 at 7 days in data set [5] (Tables 6 and 7 study) was over 100 µM.

As for `COc1ccccc1-c1noc(=O)n1-c1cccc(C(F)(F)F)c1` [ITI-367, 3-(2-methoxyphenyl)-4-[3-trifluoromethyl-phenyl]-1,2,4-oxadiazol-5-one, reference compound], the figures for the “Antiviral index (TC50/IC50)” value in data set [6], in data set [7] and in data set [8] were over 2.13, over 2.39 and over 1.33, respectively. Besides, the pIC50 in data set [6] (setting [10]) is 4.33; in data set [7] (setting [10]), 4.38; in data set [8] (setting [11]), 4.13. Further, the values for the IC90 in data set [6] (setting [10]), in data set [7] (setting [10]) and in [8] (setting [11]) were over 100 µM, 96 µM and over 100 µM, respectively. Also, the CC50 at 7 days in data set [5] (Table 4 study, PBMCs) is over 100 µM.

With `CC1(C)CC(NC(=O)C(=O)Nc2ccc(Cl)cc2)CC(C)(C)N1` [NBD-556, N-(4-chlorophenyl), —N′-(2,2,6,6-tetramethylpiperidin-4-yl)-oxalamide, reference compound], the “direct interaction with sensor chip-immobilized HIV-1 MA” value in [9] is “no such interaction”.
